According to patent US12441746B2, “HCK inhibitors for the treatment of fibrosis and cancer” (Icahn School of Medicine at Mount Sinai, priority 2020, dated 2025):
Where two headings read alike, the source gives them in different places.

Key:
[1] = tested on: SMAD3 transcriptional activity in HEK293 cells; assay: SMAD3 transcriptional activity in HEK293 cells; assay type: cell-based
HK2 cells = assay: mRNA expression of fibrosis markers in HK2 cells; assay type: cell-based
HCK kinase = biological target: T1, HCK kinase (Homo sapiens, UniProt P08631); assay: HCK activity inhibition, radioactive kinase assay (Reaction Biology Corp); assay type: biochemical
T1 construct: purchased Reaction Biology Corp
T1 sequence (P08631 whole entry): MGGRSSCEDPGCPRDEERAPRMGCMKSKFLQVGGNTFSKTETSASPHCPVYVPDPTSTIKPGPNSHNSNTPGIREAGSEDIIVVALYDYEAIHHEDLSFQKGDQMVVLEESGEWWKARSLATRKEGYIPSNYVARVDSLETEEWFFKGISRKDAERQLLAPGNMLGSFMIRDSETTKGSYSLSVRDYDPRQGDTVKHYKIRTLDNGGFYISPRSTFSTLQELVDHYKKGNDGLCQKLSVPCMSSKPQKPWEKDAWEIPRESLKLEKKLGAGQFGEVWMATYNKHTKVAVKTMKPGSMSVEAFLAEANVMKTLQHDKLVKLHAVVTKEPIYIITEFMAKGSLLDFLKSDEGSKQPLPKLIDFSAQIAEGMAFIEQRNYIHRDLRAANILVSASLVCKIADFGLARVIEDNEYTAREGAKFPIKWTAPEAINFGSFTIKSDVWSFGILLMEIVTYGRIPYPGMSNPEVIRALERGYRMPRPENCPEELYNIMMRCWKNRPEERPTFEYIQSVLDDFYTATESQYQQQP
Description: HCK activity inhibition efficiency for the inhibitors. Inhibiting efficiency is performed in Reaction Biology with Corp P32 radioactive kinase assay, comparing compounds of the invention with dasatinib for HCK, Bcr-Abl and other binding kinases identified in the reference. Briefly, HCK kinase was delivered into the substrate solution and gently mixed, then compounds in DMSO were added into the kinase reaction mixture by Acoustic technology (Echo550; Nano liter range), and incubated for 20 minutes at room temperature. 33P-ATP was delivered into the reaction mixture to initiate the reaction. The kinase reaction was incubated for 2 hours at room temperature. Reactions were spotted onto P81 ion exchange paper, and detected kinase activity was measured by filter-binding method.

Cytotoxicity = assay type: cell-based; settings: at 50 uM (data not shown)
Src-family kinase (SFK) = assay: Inhibition of all Src-family kinase (SFK) activity; assay type: biochemical; settings: FIG. 3
murine UUO model = assay: Murine unilateral ureteral obstruction (UUO) kidney fibrosis model; assay type: in vivo, Male C57BL/6 mice; settings: 25 mg/kg by gavage daily, 7-days post-UUO
Description: Inhibiting Hck activity in vivo with Example 2 attenuates kidney fibrosis in murine UUO model: Unilateral ureteral obstruction (UUO) was performed on Male C57BL/6 mice (˜10 weeks age). Mice were perfused 7-days post UUO. The inhibitory activity of the compounds of the invention as compared to controls was determined. The UUO mice were treated with Example 2 at 25 mg/kg or vehicle (n=5) by gavage daily started one day prior to the surgery to 7-days post-surgery. […] Compounds of the invention are promising HCK-specific inhibitors.
FIG. 1 depicts mRNA—levels of pro-fibrotic markers at 7-days post-UUO by RT-PCR (normalized to GAPDH), from whole cortices of control and UUO kidneys of Example 2 and PBS-fed animals. […] Values are mean±SEM. *P<0.05.

[2] = compared with vehicle-treated mice

SMILES: Clc1cc(Cl)c2c(c1)C=C(C1=NOB(c3ccccc3)N1)C(c1ccccc1)O2 (centres unmarked) [Example 2, 3-(6,8-dichloro-2-phenyl-2H-chromen-3-yl)-5-phenyl-4,5-dihydro-1,2,4,5-oxadiazaborole]
- SMAD3 transcriptional activity [1]: reduced
- mRNA expression of fibrosis markers (HK2 cells; FIG. 4): reduced
- mRNA expression of COL1A1 (HK2 cells; HK2 cells): reduced
- mRNA expression of FN1 (HK2 cells; HK2 cells): reduced
- mRNA expression of SNAIL (HK2 cells; HK2 cells): reduced
- IC50 (HCK kinase; HCK, read-out: IC50): < 20 µM
- IC50 (HCK kinase; radioactive kinase assay, 33P-ATP, 2 hours at room temperature, read-out: IC50 for HCK activity): ~12 µM
- cytotoxicity (Cytotoxicity): no cytotoxicity
- selectivity among Src-family kinases (Src-family kinase (SFK)): selectivity to HCK inhibition
- renal fibrosis in the UUO kidneys (Masson and collagen I staining) (murine UUO model): reduced renal fibrosis
- RTEC injury in the UUO kidney (H&E staining) (murine UUO model; compared to vehicle-treated mice): reduced RTEC injury
- expression of Col1a1 in the UUO kidney (murine UUO model; [2]): significantly decreased
- expression of FSP-1 in the UUO kidney (murine UUO model; [2]): significantly decreased
- expression of Fibronectin in the UUO kidney (murine UUO model; [2]): significantly decreased
